Data as given in US7381541B2, “Methods for producing animal feed preparations with astaxanthin-containing plants or parts of plants of the genus Tagetes” (SunGene GmbH & Co. KGaA, priority 2002, dated 2008).

System: trout
Experiment: Oral administration to trout in a standard trout feed: examination of bioavailability, pigmenting and performance parameters
Assay type: in vivo
Conditions: 8 weeks
Procedure: The trout feed comprising the inventive astaxanthin pigments is produced in accordance with Example IV and administered orally to trout (mean live mass 180 g). 3 concentrations are tested: 10, 20 and 40 mg of astaxanthin from the inventive astaxanthin pigmenting per kg of diet.
The trout are raised as described hereinafter: • The trout are given as standard an adaptation phase of 14 days. • During the feeding experiment, 10 trout are kept per pool in constant-flow plastic tanks of volume 80 l of water. The water temperature is 15° C. The water is biologically purified and at least 10% of the total amount of water is replaced by fresh water per day. • The illumination period is 12 hours per day to avoid premature sexual maturation of the animals. • The number of pools per treatment is 3. This is equivalent to 30 trout per dose level. • The diets are stored at −20° C. to avoid astaxanthin losses. The feed is thawed by portions (weekly) and administered. • The experimental period is 8 weeks. […]
The average feed consumption per fish, feed conversion and live mass gain are statistically evaluated.
The pigmenting of the fish is measured by reflectance spectrophotometric measurements (Minolta a value =red value at the fillet incision) and by determining the astaxanthin content (mg/kg) in the fillet in each case compared with the negative control.

Compound: CC1=C(/C=C/C(C)=C/C=C/C(C)=C/C=C/C=C(C)/C=C/C=C(C)/C=C/C2=C(C)C(=O)[C@@H](O)CC2(C)C)C(C)(C)C[C@H](O)C1=O [synthetic astaxanthin, astaxanthin]
- performance parameters (feed intake, feed utilization, live mass gain): differences between or within treatments: no statistically secured differences
